Patent US9242981B2, “Fused pyrazole derivatives as novel ERK inhibitors” (Merck Sharp & Dohme Corp., priority 2010, dated 2016)

Target: Mouse ERK2 protein (Mus musculus (Mouse), UniProt P63085)
Assay: Coupled MEK1/ERK2 IMAP assay or Active ERK2 IMAP assay
Type: biochemical
Conditions: Table 1, class symbols, 30 μM ATP
Procedure: 14 μl of kinase buffer (10 mM Tris.HCl pH 7.2, 10 mM MgCl2, 0.01% Tween-20, 1 mM DTT) containing 0.4 ng unphosphorylated Mouse ERK2 protein is added to each well of a black 384-well assay plate. […] DMSO concentration during initial incubation is 6.7%. […] DMSO concentration during ERK activation was 4%. After one hour, reactions are terminated by addition of 60 μl IMAP detections beads in binding buffer (Molecular Devices). Binding is allowed to equilibrate for 30 minutes before reading the plate on an LJL Analyst Fluorescence Polarization plate reader.
Activated ERK2 activity was also determined in the IMAP assay format using the procedure outlined above. […] Reactions proceeded for 30 minutes before termination by addition of […] IMAP detection beads in binding buffer. Plates were read as above after 30 minute binding equilibration.

Mouse ERK2 protein, sequence (P63085 whole entry): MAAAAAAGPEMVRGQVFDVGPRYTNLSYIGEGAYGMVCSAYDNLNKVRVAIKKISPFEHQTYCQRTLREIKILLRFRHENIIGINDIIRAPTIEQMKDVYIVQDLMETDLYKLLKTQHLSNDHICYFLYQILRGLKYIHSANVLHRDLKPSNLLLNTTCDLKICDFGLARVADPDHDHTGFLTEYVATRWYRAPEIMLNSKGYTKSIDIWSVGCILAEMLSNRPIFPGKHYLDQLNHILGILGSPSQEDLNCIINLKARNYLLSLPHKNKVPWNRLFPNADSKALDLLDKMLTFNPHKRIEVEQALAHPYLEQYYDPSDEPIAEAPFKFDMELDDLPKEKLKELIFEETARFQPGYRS

| SMILES | IC50 |
| --- | --- |
| O=C(N[C@@H]1CCCN(Cc2ccsc2)C1)N1CCc2[nH]nc(-c3ccncc3)c2C1 [Compound 56, 1,4,6,7-tetrahydro-3-(4-pyridinyl)-N-[1-(3-thienylmethyl)-3(R)-piperidinyl]-5H-pyrazolo[4,3-c]pyridine-5-carboxamide] | < 20 nM |
| O=C(N[C@@H]1CCCN(Cc2ncc[nH]2)C1)N1CCc2[nH]nc(-c3ccncc3)c2C1 [Compound 63, 1,4,6,7-tetrahydro-N-[1-(1H-imidazoL-2-ylmethyl)-3(R)-piperidinyl]-3-(4-pyridinyl)-5H-pyrazolo[4,3-c]pyridine-5-carboxamide] | 101 to 1000 nM |
| Cn1cnc(CN2CCC[C@@H](NC(=O)N3CCc4[nH]nc(-c5ccncc5)c4C3)C2)c1 [Compound 64, 1,4,6,7-tetrahydro-N-[1-[(1-methyl-1H-imidazoL-4-yl)methyl]-3(R)-piperidinyl]-3-(4-pyridinyl)-5H-pyrazolo[4,3-c]pyridine-5-carboxamide] | 101 to 1000 nM |
| Cn1ccc(CN2CCC[C@@H](NC(=O)N3CCc4[nH]nc(-c5ccncc5)c4C3)C2)n1 [Compound 65, 1,4,6,7-tetrahydro-N-[1-[(1-methyl-1H-pyrazol-3-yl)methyl]-3(R)-piperidinyl]-3-(4-pyridinyl)-5H-pyrazolo[4,3-c]pyridine-5-carboxamide] | 101 to 1000 nM |
| O=C(N[C@@H]1CCCN(Cc2c(F)cccc2Cl)C1)N1CCc2[nH]nc(-c3ccncc3)c2C1 [Compound 66, N-[1-[(2-chloro-6-fluorophenyl)methyl]-3(R)-piperidinyl]-1,4,6,7-tetrahydro-3-(4-pyridinyl)-5H-pyrazolo[4,3-c]pyridine-5-carboxamide] | < 20 nM |
| O=C(N[C@@H]1CCCN(Cc2ccccc2C(F)(F)F)C1)N1CCc2[nH]nc(-c3ccncc3)c2C1 [Compound 67, 1,4,6,7-tetrahydro-3-(4-pyridinyl)-N-[1-[[2-(trifluoromethyl)phenyl]meth-yl]-3(R)-piperidinyl]-5H-pyrazolo[4,3-c]pyridine-5-carboxamide] | 21 to 100 nM |
| O=C(N[C@@H]1CCCN(Cc2c(F)cccc2C(F)(F)F)C1)N1CCc2[nH]nc(-c3ccncc3)c2C1 [Compound 68, N-[1-[[2-fluoro-6-(trifluoromethyl)phenyl]meth-yl]-3(R)-piperidinyl]-1,4,6,7-tetrahydro-3-(4-pyridinyl)-5H-pyrazolo[4,3-c]pyridine-5-carboxamide] | 21 to 100 nM |
| COc1ccccc1CN1CCC[C@@H](NC(=O)N2CCc3[nH]nc(-c4ccncc4)c3C2)C1 [Compound 70, 1,4,6,7-tetrahydro-N-[1-[(2-methoxyphenyl)methyl]-3(R)-piperidinyl]-3-(4-pyridinyl)-5H-pyrazolo[4,3-c]pyridine-5-carboxamide] | 21 to 100 nM |
| COC(=O)c1ccccc1CN1CCC[C@@H](NC(=O)N2CCc3[nH]nc(-c4ccncc4)c3C2)C1 [Compound 72, methyl 2-[[3(R)-[[[1,4,6,7-tetrahydro-3-(4-pyridinyl)-5H-pyrazolo[4,3-c]pyridin-5-yl]carbonyl]amino]-1-piperidinyl]methyl]benzoate] | 21 to 100 nM |
| COc1cccc(OC)c1CN1CCC[C@@H](NC(=O)N2CCc3[nH]nc(-c4ccncc4)c3C2)C1 [Compound 73] | 101 to 1000 nM |
| O=C(N[C@@H]1CCCN(Cc2ccccc2N2CCOCC2)C1)N1CCc2[nH]nc(-c3ccncc3)c2C1 [Compound 74, 1,4,6,7-tetrahydro-N-[1-[[2-(4-morpholinyl)phenyl]-methyl]-3(R)-piperidinyl]-3-(4-pyridinyl)-5H-pyrazolo[4,3-c]pyridine-5-carboxamide] | 101 to 1000 nM |
| Cc1cc(-c2n[nH]c3c2CN(C(=O)N[C@@H]2CCCN(Cc4c(F)cccc4F)C2)CC3)ccn1 [Compound 81, N-[1-[(2,6-difluorophenyl)-methyl]-3(R)-piperidinyl]-1,4,6,7-tetrahydro-3-(2-methyl-4-pyridinyl)-5H-pyrazolo[4,3-c]pyridine-5-carboxamide] | 21 to 100 nM |
| COC(=O)C1CC(NC(=O)N2CCc3[nH]nc(-c4ccnc(C)c4)c3C2)CN(Cc2c(F)cccc2F)C1 (stereo not drawn) [Compound 82, methyl 1-[(2,6-difluorophenyl)methyl]-5-[[[1,4,6,7-tetrahydro-3-(2-methyl-4-pyridinyl)-5H-pyrazolo[4,3-c]pyridin-5-yl]carbonyl]amino]-3-piperidinecarboxylate] | 101 to 1000 nM |
| Cc1cc(-c2n[nH]c3c2CN(C(=O)NC2CC(C(=O)O)CN(Cc4c(F)cccc4F)C2)CC3)ccn1 (stereo not drawn) [Compound 83, 1-[(2,6-difluorophenyl)-methyl]-5-[[[1,4,6,7-tetrahydro-3-(2-methyl-4-pyridinyl)-5H-pyrazolo[4,3-c]pyridin-5-yl]carbonyl]amino]-3-piperidinecarboxylic acid] | 101 to 1000 nM |
| Cc1cc(-c2n[nH]c3c2CN(C(=O)NC2CCCN(Cc4c(F)cccc4Cl)C2)CC3)ccn1 (stereo not drawn) [Compound 85, N-[1-[(2-chloro-6-fluorophenyl)methyl]-3-piperidinyl]-1,4,6,7-tetrahydro-3-(2-methyl-4-pyridinyl)-5H-pyrazolo[4,3-c]pyridine-5-carboxamide] | < 20 nM |
| Cc1cc(-c2n[nH]c3c2CN(C(=O)NC2CC(CO)CN(Cc4c(F)cccc4F)C2)CC3)ccn1 (stereo not drawn) [Compound 86, N-[1-[(2,6-difluorophenyl)-methyl]-5-(hydroxymethyl)-3-piperidinyl]-1,4,6,7-tetrahydro-3-(2-methyl-4-pyridinyl)-5H-pyrazolo[4,3-c]pyridine-5-carboxamide] | 21 to 100 nM |
| Cc1cc(-c2n[nH]c3c2CN(C(=O)NC2(C)CCCN(Cc4c(F)cccc4F)C2)CC3)ccn1 (stereo not drawn) [Compound 87, N-[1-[(2,6-difluorophenyl)-methyl]-3-methyl-3-piperidinyl]-1,4,6,7-tetrahydro-3-(2-methyl-4-pyridinyl)-5H-pyrazolo[4,3-c]pyridine-5-carboxamide] | 101 to 1000 nM |
| Cc1cc(-c2n[nH]c3c2CN(C(=O)NC2(C)CCCN(Cc4csc5ccccc45)C2)CC3)ccn1 (stereo not drawn) [Compound 88, N-[1-(benzo[b]thien-3-ylmethyl)-3-methyl-3-piperidinyl]-1,4,6,7-tetrahydro-3-(2-methyl-4-pyridinyl)-5H-pyrazolo[4,3-c]pyridine-5-carboxamide] | 101 to 1000 nM |
| Cc1cc(-c2n[nH]c3c2CN(C(=O)NC2CC(C)CN(Cc4c(F)cccc4F)C2)CC3)ccn1 (stereo not drawn) [Compound 89, N-[1-[(2,6-difluorophenyl)-methyl]-5-methyl-3-piperidinyl]-1,4,6,7-tetrahydro-3-(2-methyl-4-pyridinyl)-5H-pyrazolo[4,3-c]pyridine-5-carboxamide] | 21 to 100 nM |
| COc1cccc(F)c1CN1CC(C)CC(NC(=O)N2CCc3[nH]nc(-c4ccnc(C)c4)c3C2)C1 (stereo not drawn) [Compound 90, N-[1-[(2-fluoro-6-methoxyphenyl)methyl]-5-methyl-3-piperidinyl]-1,4,6,7-tetrahydro-3-(2-methyl-4-pyridinyl)-5H-pyrazolo[4,3-c]pyridine-5-carboxamide] | 21 to 100 nM |
| Cc1cc(-c2n[nH]c3c2CN(C(=O)NC2CC(C)CN(Cc4c(F)cccc4Cl)C2)CC3)ccn1 (stereo not drawn) [Compound 91, N-[1-[(2-chloro-6-fluorophenyl)methyl]-5-methyl-3-piperidinyl)-1,4,6,7-tetrahydro-3-(2-methyl-4-pyridinyl)-5H-pyrazolo[4,3-c]pyridine-5-carboxamide] | < 20 nM |
